# Assays:
# mammary tumors = experiment: Bioassay of mammary cancer prevention (MNU-induced mammary carcinogenesis); assay type: in vivo, Female Sprague-Dawley rats; conditions: CLA 0.05-0.37% (treatments A-D); vaccenic acid 0.73-1.6% (treatments E-G)
# Method: (§1) Protocol of animal treatment. Female Sprague-Dawley rats were purchased from Charles River Breeding Laboratories (Raleigh, N.C.) at 45 days of age and all subsequent procedures were approved by Roswell Park Cancer Institute Animal Care and Use Committee. Rats were fed the AIN-76 basal diet for 1 week to acclimatize them to the powdered diet. All animals were injected with a single dose of methylnitrosourea (MNU: 50 mg/kg body weight) intraperitoneally at 52 days of age for the induction of mammary tumors. Immediately after MNU administration, a total of 210 rats were divided into 7 groups of 30 each and maintained on different dietary treatments for the following 24 weeks. Throughout this period, rats were palpated weekly to determine the appearance, size, and location of mammary tumors. The experiment was terminated at 24 weeks after MNU administration. All tumors were excised and fixed for histological examination and only confirmed carcinomas are reported in data summaries. Randomly-selected subsets of nine rats from each treatment were necropsied. The tumor-free inguinal mammary fat pad, a portion of the liver, and plasma were retrieved. […]
# (§2) Statistical analyses. Fatty acid composition data were analyzed statistically by the General Linear Model procedure of SAS (SAS Inc., Cary, N.C.). […]
# [1] = Fatty acid analysis of liver, plasma and mammary fat pad lipids (Example 1); assay type: in vivo, Female Sprague-Dawley rats
# Method: as §1, with “administration.” for “administration. All tumors were excised and fixed for histological examination and only confirmed carcinomas are reported in data summaries. Randomly-selected subsets of nine rats from each treatment were necropsied. The tumor-free inguinal mammary fat pad, a portion of the liver, and plasma were retrieved.”
# Fatty acid analysis. […] However, because these typically yielded far less lipid, quantities of all reagents for methylation were adjusted to compensate for the reduced yield.
# Fatty acid methyl esters were analyzed by gas chromatography (Hewlett Packard GC system 6890+with flame ionization detector) using a CP-Sil 88 capillary column (100 m×0.25 mm i.d. with 0.2 μm film thickness; Varian Inc.). […]
# as §2
Tissue and plasma concentrations of vaccenic acid with increasing intake (in words) ([1]; FIG. 1),"Content of cis-9, trans-11 CLA within each tissue with increasing supply of vaccenic acid (in words) ([1]; liver, plasma, mammary fat pad, FIG. 3)",SMILES,Effect of increasing dietary intake on tumor incidence (in words) (mammary tumors)
–,–,"CCCCCC/C=C/C=C\CCCCCCCC(=O)O [cis-9, trans-11 CLA, cis-9, trans-11 octadecadienoic acid, reference compound]",the decrease was not statistically significant
increased,linearly increased,"CCCCCC/C=C/CCCCCCCCCC(=O)O [vaccenic acid, trans-11 octadecenoic acid]",distinct inhibitory response to vaccenic acid which was dose-dependent

# Source: patent publication US20050004218A1, “Vaccenic acid” (priority 2003, published 2005)
